Values of other authors as cited in patent publication US20060104997A1, “Monoterpene compositions and uses thereof” (priority 2001, published 2006).

Tested on: advanced N-methyl-N-nitrosourea-induced rat mammary carcinoma

C=C(C)C1CC=C(CO)CC1 (stereo not shown) [perillyl alcohol, 1-hydroxymethyl-4-isopropenyl-1-cyclohexene]
activity relative to limonene: approximately 5 fold
